{"source": "paper PMC12415608", "about": "(Molecular biology of the cell, 2025)", "target": "PaFimX (Pseudomonas aeruginosa, UniProt Q9HUK6)", "test": "isothermal titration calorimetry", "type": "binding"}
{"smiles": "Nc1nc2c(ncn2[C@@H]2O[C@@H]3CO[P@](=O)(O)O[C@H]4[C@@H](O)[C@H](n5cnc6c(=O)[nH]c(N)nc65)O[C@@H]4CO[P@](=O)(O)O[C@H]3[C@H]2O)c(=O)[nH]1", "note": "[cdG]", "values": [{"measurement": "Kd", "value": 144, "unit": "nM"}]}
